Reference: patent US20220357341A1, “COMPOSITIONS AND METHODS FOR AN IL-17 TARGET ENGAGEMENT ASSAY WITH SMALL MOLECULE MODULATORS” (Janssen Pharmaceutica NV, priority 2019, published 2022)

B1: mAb4538 (Janssen Biotech, Inc.) (antibody, human IgG1, lambda, V domains shown)
VH: QVQLQQSGPGLVKPSQTLSLTCAISGDSVSSSSAAWGWIRQSPSRGLEWLGRISYRSKWYNDYAVSVKSRITINPDTSKNQFSLQLNSVTPEDTAVYYCAREVDSMYYSYFDIWGQGTLVTVSS
VL: EIVLTQSPATLSLSPGERATLSCRASQNVWAFYLAWYQQKPGQAPRLLIYGASNRATGIPARFSGSGSGTDFTLTISSLEPEDFAVYYCQQYRSTLSLTFGQGTKVEIKG
notes: also called human mAb4538 antibody

target: T1, IL-17 (Homo sapiens, UniProt Q16552); test: Free IL-17 ELISA: capture antibody of DuoSet ELISA kit DY317 paired with mAb4538 as detection agent, IL-17 titration with 10 μM SM modulator; type: binding; details: capture antibody of DuoSet ELISA kit DY317, detection agent mAb4538 500 ng/ml, FIGS. 2A-2F
T1 construct: serial dilutions of recombinant IL-17 were prepared in diluent
Experimental: Two-fold and 8-point serial dilutions of recombinant IL-17 were prepared in diluent starting from 1 ng/ml, in duplicate. For testing differentiating property on SM modulators, IL-17 calibration samples were prepared in the presence of 10 μM SM modulators or vehicle control containing 0.1% DMSO. IL-17 samples were incubated for 1 hour at 37° C.
(§1) High binding 96-well plates were coated with 100 μL/well of 4 μg/ml capture antibody in PBS overnight at room temperature. Coated plates were washed 6×400 μL/well on plate washer (Zoom HT Microplate Washer) and blocked with 300 μL/well blocker (1% BSA in PBS) at room temperature for 2.5 hours followed by 6×400 μL/well on plate washer.
Samples were prepared by incubating titrated IL-17 with SM modulators at final concentration of 10 μM. IL-17 levels were measured in ELISA assay by adding 95 μL/well samples to the capture antibody coated plates. Plates were kept at room temperature for 30 minutes and then 5 μL/well of detecting agent were added to a final of 500 ng/mL, kept at room temperature for another 30 minutes, followed by washing 6×400 μL/well on plate washer. Development of color for measurement was performed by adding streptavidin conjugated horseradish peroxidase at 100 μL/well and incubated for 20 minutes at room temperature in the dark, followed by 6×400 μL/well on plate washer, and then addition of 100 μL/well pf substrate solution, incubated for 20 minutes at room temperature in the dark. Reaction was then stopped by addition of 50 μL/well of stop solution and plates were measured in plate reader at 450-540 nm.
(§2) Optical density (OD) readout from plate reader (Molecular Devices Spectra Max 340fPC) were analyzed with Softmax Pro6.3 and GraphPad Prism, and plotted as dose response curve of OD values vs IL-17 concentrations.

T1 sequence (Q16552 24-155): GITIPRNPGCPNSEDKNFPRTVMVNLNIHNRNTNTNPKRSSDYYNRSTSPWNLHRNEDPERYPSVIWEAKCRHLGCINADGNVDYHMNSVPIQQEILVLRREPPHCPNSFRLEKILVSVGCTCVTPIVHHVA

| Molecule | detection of free IL-17 versus SM modulator-bound IL-17 (OD vs IL-17 concentration) |
| --- | --- |
| C[C@H]1NC(=O)[C@@H](Cc2ccc(NC(=O)[C@H](Cc3ccccc3Cl)NC(=O)Cc3ccc(CO)cc3)cc2)NC(=O)CC2(CCCC2)CC(=O)NCCCCCNC1=O [Compound #4] | detection of free IL-17, but not modulator-bound IL-17 |
| NC(=O)CC[C@H]1NC(=O)[C@@H](Cc2ccc(NC(=O)[C@H](Cc3ccccc3Cl)NC(=O)Cc3ccc(F)cc3)cc2)NC(=O)CC2(CCCC2)CC(=O)NCCCCCNC1=O [Compound #2] | detection of free IL-17, but not modulator-bound IL-17 |
| O=C1CNC(=O)[C@@H](Cc2ccc(NC(=O)[C@H](Cc3ccccc3Cl)NC(=O)Cc3ccccc3)cc2)NC(=O)CC2(CCCC2)CC(=O)NCCCCCN1 [Compound #5] | detection of free IL-17, but not modulator-bound IL-17 |
| C[C@H]1NC(=O)[C@@H](Cc2ccc(NC(=O)[C@H](Cc3ccccc3Cl)NC(=O)Cc3ccc(F)cc3)cc2)NC(=O)CC2(CCCC2)CC(=O)N[C@H](C(=O)O)CCCCNC1=O [Compound #3] | detection of free IL-17, but not modulator-bound IL-17 |
| O=C(CC1(CC(=O)N2CCCC2)CCCC1)NCCc1ccc(NC(=O)[C@H](Cc2ccccc2Cl)NC(=O)C(F)(F)c2ccccc2)cc1 [Compound #6] | detection of free IL-17, but not modulator-bound IL-17 |

target: T2, human IL-17 (interleukin 17A), recombinant, free (not bound to a small molecule modulator) (human, UniProt Q16552 24-155, limits assumed); test: sandwich ELISA: plate coated with capture antibody of DuoSet DY317, IL-17A titrated in 0.1% DMSO vehicle, mAb4538 at 500 ng/mL as detection agent, streptavidin-HRP readout; details: not given
T2 construct: Recombinant IL-17 used as calibrator in the sandwich ELISAs; also called IL-17A; free IL-17
Experimental: as §1
Samples were prepared by incubating titrated IL-17 with SM modulators at final concentration of 10 μM. IL-17 levels were measured in ELISA assay by adding 95 μL/well samples to the capture antibody coated plates. Plates were kept at room temperature for 30 minutes and then 5 μL/well of detecting agent were added to a final of 500 ng/mL, kept at room temperature for another 30 minutes, followed by washing 6×400 μL/well on plate washer. […] Reaction was then stopped by addition of 50 μL/well of stop solution and plates were measured in plate reader at 450-540 nm.
as §2

T2 sequence (Q16552 24-155 limits assumed): as the sequence (Q16552 24-155) above

| Molecule | binding result |
| --- | --- |
| B1 | binds |
